Measurements: paper PMC9532399, “The lysosomal transporter TAPL has a dual role as peptide translocator and phosphatidylserine floppase” (Nature Communications, 2022)

Target: T1, mouse TAPL ΔTMD0 (Mus musculus, UniProt Q9JJ59)
T1 construct: thrombin cleavage site (C); eGFP (C); 10XHis (C); made in house; host or cells: Trichoplusia ni High Five (Hi5) insect cells, baculovirus (pVL1393)
T1 sequence (Q9JJ59 143-762): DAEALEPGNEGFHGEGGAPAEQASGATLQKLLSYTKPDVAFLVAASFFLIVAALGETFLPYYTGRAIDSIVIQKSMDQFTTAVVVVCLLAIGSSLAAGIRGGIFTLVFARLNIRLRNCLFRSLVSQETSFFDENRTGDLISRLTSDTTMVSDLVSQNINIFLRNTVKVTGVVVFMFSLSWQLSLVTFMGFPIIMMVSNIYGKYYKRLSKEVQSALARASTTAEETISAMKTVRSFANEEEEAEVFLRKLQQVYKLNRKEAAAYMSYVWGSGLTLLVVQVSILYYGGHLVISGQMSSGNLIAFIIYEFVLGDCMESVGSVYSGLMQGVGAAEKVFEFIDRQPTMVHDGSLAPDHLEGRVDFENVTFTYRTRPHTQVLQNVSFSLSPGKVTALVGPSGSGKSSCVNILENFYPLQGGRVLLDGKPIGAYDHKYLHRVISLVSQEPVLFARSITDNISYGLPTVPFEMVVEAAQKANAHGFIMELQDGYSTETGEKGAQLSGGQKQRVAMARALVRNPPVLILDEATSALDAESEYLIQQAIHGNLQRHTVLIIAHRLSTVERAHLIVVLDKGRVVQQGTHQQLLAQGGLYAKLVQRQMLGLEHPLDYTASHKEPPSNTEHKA
Test: Dithionite-based flip-flop (floppase) assay of NBD*-labeled lipids, ΔTMD0 proteoliposomes
Format: biochemical
Details: for fluorescence remaining after dithionite: 10 mM dithionite
Method: All lipids used in reconstitution were purchased from Avanti Polar Lipids, Inc. (purity > 99%). The in vitro flip–flop assay was performed using NBD* dye-labeled proteoliposomes as described previously. Briefly, E. coli polar lipids and egg PC were mixed in a 1:1 molar ratio, and 0.5% (mol/mol) NBD*-lipid was added. The lipid mixture was then dried under nitrogen gas. The NBD*-lipids used were 18:1-06:0 NBD*-PS (1-oleoyl-2-{6-[(7-nitro-2-1,3-benzoxadiazol-4-yl)amino]hexanoyl}-sn-glycero-3-phosphoserine), 18:1-06:0 NBD*-PC (1-oleoyl-2-{6-[(7-nitro-2-1,3-benzoxadiazol-4-yl)amino]hexanoyl}-sn-glycero-3-phosphocholine), 18:1-06:0 NBD*-PG (1-oleoyl-2-{6-[(7-nitro-2-1,3-benzoxadiazol-4-yl)amino]hexanoyl}-sn-glycero-3-[phospho-rac-(1-glycerol)]), 18:1-06:0 NBD*-PE (1-oleoyl-2-{6-[(7-nitro-2-1,3-benzoxadiazol-4-yl)amino]hexanoyl}-sn-glycero-3-phosphoethanolamine), and 25-NBD*-Cholesterol (25-[N-[(7-nitro-2-1,3-benzoxadiazol-4-yl)methyl]amino]−27-norcholesterol). Thin lipid films were solubilized in 20 mM HEPES–NaOH pH 8.0, 200 mM NaCl and 5% (v/v) glycerol, incubated at RT for 30 min and subjected to 5 freeze–thaw cycles. After extrusion with a Mini-Extruder at 65 °C, final lipid concentrations were determined by phosphorus assays. Briefly, 10 μL of extruded lipid was added to 10 μL of 2% (w/v) ammonium molybdate and 300 μL of concentrated perchloric acid. The mixture was heated at 250 °C for 30 min, then cooled to RT and mixed with 1.5 mL of 0.4% (w/v) ammonium molybdate and 250 μL of 9% (w/v) L-ascorbic acid. It was again heated at 100 °C for 6 min and cooled to RT. Lipid concentrations were calculated from the absorbance at 820 nm using a standard curve prepared with NaH2PO4 solution. After accurately determining the lipid concentration, DM-purified protein and 5 mM lipid suspension (solubilized in 5 mM DM) were mixed 1:25 (w/w). After incubation at 4 °C for 1.5 h, DM detergent was removed with 75 mg Bio-beads SM-2 by periodic gentle shaking for 1 h at 4 °C (Supplementary Fig. 5a). The beads were replaced once, followed by an additional incubation at 4 °C for 2 h to completely remove detergent. The resulting proteoliposomes were collected by ultracentrifugation at 200,000×g for 1.5 h at 4 °C.
To measure the flip–flop activity, 10 μL of 2 mM NBD*-labeled proteoliposomes were added to 100 μL of reaction buffer (20 mM HEPES–NaOH pH 8.0, 200 mM NaCl, 5 mM ATP and 5% (v/v) glycerol) in the presence of 2 mM MgCl2 (or NaCl), and incubated at 37 °C for 1 h. The mixture was transferred to a 96-well plate and time-dependent fluorescence (λex/λem = 460/538 nm) was recorded every 30 s for 26 min using a fluorescence spectrophotometer (Gemini XPS). After the baseline fluorescence had stabilized, 10 mM sodium dithionite was added to quench the fluorescence of NBD*-lipid present in the outer leaflets of the liposomes. The initial rapid drop and subsequent slow decline in fluorescence intensity were monitored. When a new steady state was established, 1% (v/v) Triton X-100 was added to completely disrupt the liposomes. The net percentage of NBD*-lipid translocated across the lipid bilayer was calculated from the following equation[72]: the percentage of protected NBD*-lipid in the inner leaflet = [(FD−F0)/(FT−F0)]×100, and that of accessible NBD*-lipid in the outer leaflet = [(FT−FD)/(FT−F0)]×100, where FT is the total fluorescence of the sample before the addition of dithionite, FD is the fluorescence of the sample after quenching with dithionite, and F0 is any residual fluorescence of the sample after solubilization with Triton X-100. Fluorescence values (FT, FD, F0) were calculated as the averages of 5 points on the respective plateau lines. The ΔTMD0-mediated lipid floppase activity was determined by subtracting the percentage of NBD*-lipid fluorescence measured in the presence of Na^+/ATP from that measured in the presence of Mg^2+/ATP.

CCCCCCCC/C=C\CCCCCCCC(=O)OC[C@H](COP(=O)(O)OC[C@H](N)C(=O)O)OC(=O)CCCCCNc1ccc([N+](=O)[O-])c2nonc12 [NBD*-PS, 1-oleoyl-2-{6-[(7-nitro-2-1,3-benzoxadiazol-4-yl)amino]hexanoyl}-sn-glycero-3-phosphoserine]
difference of inner leaflet fluorescence with and without hydrolysable ATP (Mg2+/ATP minus Na+/ATP): ~ 4.5%
NBD*-PS fluorescence intensity (net percentage transported outer to inner leaflet) (Mg2+/ATP minus Na+/ATP, 5 mM ATP, 37 °C 1 h, no peptide, no POPS, mean n=9): 4.53%
NBD*-PS fluorescence intensity (net percentage transported) (Mg2+/ATP minus Na+/ATP, with 9-mer peptide, mean n=5): 2.081%
NBD*-PS fluorescence intensity (net percentage transported) (Mg2+/ATP minus Na+/ATP, with 10% (mol/mol) POPS, mean n=5): 2.6371%
fluorescence remaining after dithionite (Mg2+/ATP, % of original value): ~ 36.2%
ATP-dependent lipid transport by ΔTMD0 (NBD*-labeled lipid, PE, PG, PC and cholesterol data not shown): high
fluorescence remaining after dithionite (Na+/ATP, % of original fluorescence): ~ 31.7%
NBD*-PS fluorescence intensity (net percentage transported) (no peptide, no POPS, replicate I): 5.0115%
NBD*-PS fluorescence intensity (net percentage transported) (no peptide, no POPS, replicate II): 5.082%
NBD*-PS fluorescence intensity (net percentage transported) (no peptide, no POPS, replicate III): 5.234%
NBD*-PS fluorescence intensity (net percentage transported) (no peptide, no POPS, replicate IV): 3.911%
NBD*-PS fluorescence intensity (net percentage transported) (no peptide, no POPS, replicate IX): 4.577%
NBD*-PS fluorescence intensity (net percentage transported) (no peptide, no POPS, replicate V): 3.922%
NBD*-PS fluorescence intensity (net percentage transported) (no peptide, no POPS, replicate VI): 4.247%
NBD*-PS fluorescence intensity (net percentage transported) (no peptide, no POPS, replicate VII): 4.366%
NBD*-PS fluorescence intensity (net percentage transported) (no peptide, no POPS, replicate VIII): 4.416%
NBD*-PS fluorescence intensity (net percentage transported) (with 9-mer peptide, replicate I): 2.499%
NBD*-PS fluorescence intensity (net percentage transported) (with 9-mer peptide, replicate II): 2.553%
NBD*-PS fluorescence intensity (net percentage transported) (with 9-mer peptide, replicate III): 1.795%
NBD*-PS fluorescence intensity (net percentage transported) (with 9-mer peptide, replicate IV): 1.566%
NBD*-PS fluorescence intensity (net percentage transported) (with 9-mer peptide, replicate V): 1.9894%
NBD*-PS fluorescence intensity (net percentage transported) (with 10% (mol/mol) POPS, replicate I): 2.817%
NBD*-PS fluorescence intensity (net percentage transported) (with 10% (mol/mol) POPS, replicate II): 2.678%
NBD*-PS fluorescence intensity (net percentage transported) (with 10% (mol/mol) POPS, replicate III): 2.164%
NBD*-PS fluorescence intensity (net percentage transported) (with 10% (mol/mol) POPS, replicate IV): 2.878%
NBD*-PS fluorescence intensity (net percentage transported) (with 10% (mol/mol) POPS, replicate V): 2.648%
true active floppase activity of the transporter (ΔTMD0 minus E664Q): ~ 2.6%

RRYQNSTC^5-IAFL [9-mer, 5-IAF-labeled peptide of 9 residues (RRYQNSTC^5-IAFL)]
effect on translocation of NBD*-PS (10% (mol/mol) unlabeled POPS, or presence of the 9-mer peptide): inhibited
